Measurements from PMC11539218 (Antimicrobial Agents and Chemotherapy, 2024).

How the values were obtained:
[1] = test system: L. (L.) infantum promastigotes; format: cell-based, Leishmania (L.) infantum; details: compound 1 169.2 µM, sodium azide 10 mM; 2 and 4 h; H2DCFDA; vs untreated
Experimental: Promastigotes (2 × 10^6/well) were treated with compound 1 (169.2 µM) for 2 and 4 h, at 24°C. Later, H2DCFDA (5 µM) was added and the parasites were incubated for 15 min. Fluorescence was monitored in a spectrofluorometer with excitation and emission wavelengths of 485 and 535 nm, respectively ([19]). Sodium azide (10 mM) was employed as positive control and untreated parasites as negative control.

[2] = test system: Peritoneal macrophages infected with L. (L.) infantum; assay: Cytokines in infected macrophages (ELISA); format: cell-based, BALB/c mice; details: positive control 5 µg/mL
Experimental: L. (L.) infantum (MHOM/BR/1972/LD) promastigotes were maintained in M199 medium supplemented with 10% FBS and 0.25% hemin, pH 7.2 at 24°C. Amastigotes were isolated from golden hamsters (M. auratus) by differential centrifugation of infected spleens and the parasite’s number was determined according to Stauber ([14]). Peritoneal macrophages were obtained from the peritoneal cavity of BALB/c mice and maintained in RPMI-1640 medium supplemented with 10% FBS, pH 7.2 at 37°C.
Peritoneal macrophages (1 × 10^6/well) were infected with L. (L.) infantum […] (10:1 amastigotes/macrophage) for 24 h, at 37°C with 5% CO2. Subsequently, compound 1 (10 and 60 µM) was added and the incubation followed the same conditions described above. Cell supernatants were collected after 48 and 72 h and the cytokines (IL-4, IL-10, IL-12, and INF-γ) were measured using the BD OptEIA Mouse ELISA set kits, according to the manufacturer’s instructions. Concanavalin A (5 µg/mL) was employed as positive control and untreated cells as negative control.

[3] = test system: L. (L.) infantum promastigotes; assay: Mitochondrial membrane electric potential (JC-1, flow cytometry); format: cell-based, Leishmania (L.) infantum; details: compound 1 169.2 µM, CCCP 10 µM; 2 and 4 h; JC-1 BL-2/BL-1 ratio; vs untreated
Experimental: Promastigotes (2 × 10^6/well) were treated with compound 1 (169.2 µM) for 2 and 4 h, at 24°C. Then, JC-1 (10 µM) was added and the parasites were incubated for 20 min. Fluorescence was measured in a flow cytometer with an excitation wavelength of 488 nm and emission of 530 (BL-1) and 574 nm (BL-2). Mitochondrial membrane potential was established through the ratio of BL-2/BL-1 channels ([19]). Carbonyl cyanide m-chlorophenylhydrazone (CCCP) (10 µM) was employed as positive control and untreated parasites as negative control.

L. (L.) donovani = test system: L. (L.) donovani; parameters: method as in PMID 29061745; details: with subsequent increase in Ca2+ and collapse of mitochondrial membrane potential; cited from earlier work
[4] = test system: L. (L.) infantum promastigotes; assay: Cell cycle (propidium iodide, flow cytometry); format: cell-based, Leishmania (L.) infantum; details: 24 h; compound 1 169.2 µM, miltefosine 25 µM
Experimental: Promastigotes (2 × 10^6/well) in exponential phase, were treated with compound 1 (169.2 µM) in M199 medium supplemented with 10% FBS and 0.25% hemin, pH 7.2, for 24 h at 24°C. In sequence, 70% (vol/vol) ice-cold ethanol was used for cell permeabilization overnight at −20°C. Then, the parasites were incubated with propidium iodide (10 µg/mL) and RNase A (20 µg/mL) for 30 min. […] Miltefosine (25 µM) was employed as positive control and untreated parasites as negative control ([25]).

[5] = parameters: method as in PMID 34695563; details: plasma half-life; cited from earlier work
[6] = test system: L. (L.) infantum promastigotes; assay: Plasma membrane permeability (Sytox Green); format: cell-based, Leishmania (L.) infantum; details: compound 1 169.2 µM, Triton X-100 0.5%, up to 4 h
Experimental: Promastigotes (2 × 10^6/well) were pretreated with Sytox Green (1 µM) for 15 min, at 24°C. Then, compound 1 (169.2 µM) was added and the fluorescence was monitored every 20 min up to 4 h in a spectrofluorometer, with excitation and emission wavelengths of 485 and 535 nm, respectively ([17]). Triton X-100 (0.5% vol/vol) was employed as positive control and untreated parasites as negative control ([18]).

[7] = test system: L. (L.) infantum promastigotes; assay: DNA content / integrity (agarose gel electrophoresis); format: cell-based, Leishmania (L.) infantum; details: compound 1 169.2 µM, H2O2 10 mM; 24 h; 2% agarose gel
Experimental: Promastigotes (1 × 10^7/well) were treated with compound 1 (169.2 μM) in M199 medium supplemented with 10% FBS and 0.25% hemin, pH 7.2, for 24 h at 24°C. Then, the genetic material was extracted using the QIAamp DNA Mini Kit, according to the manufacturer’s instructions. Total DNA quantification was performed in a NanoDrop ND-1000 spectrophotometer (260/280 nm). The purified genetic material (300 ng) was analyzed by electrophoresis for 1 h at […] in a 2% agarose gel with ethidium bromide (0.5 µg/mL). Visualization was performed under UV light in a MiniBIS Pro transilluminator (DNR Bio Imaging System) ([21]). H2O2 (10 mM) was employed as positive control and untreated parasites as negative control ([26]).

[N-]=[N+]=[N-].[Na+] [sodium azide, Sodium azide, reference compound]
ROS levels [1]: increased ROS production

concanavalin A [reference compound]
production of cytokines (IL-4, IL-10, IL-12, INF-γ) [2]: tendency to increase

N#CC(C#N)=NNc1cccc(Cl)c1 [CCCP, Carbonyl cyanide m-chlorophenylhydrazone, reference compound]
mitochondrial membrane electric potential (ΔΨm) [3]: Maximum depolarization

CCCCCCCCCCCCCCCCOP(=O)([O-])OCC[N+](C)(C)C [Miltefosine, reference compound]
effect on acidocalcisomes (L. (L.) donovani): alkalinization of acidocalcisomes | Proportion of parasites in different phases of the cell cycle (% ± SD): G0/G1 [4]: 53.8 ± 0.1 % | Proportion of parasites in different phases of the cell cycle (% ± SD): M/G2 [4]: 18.1 ± 0.4% | Proportion of parasites in different phases of the cell cycle (% ± SD): S [4]: 10.5 ± 0.3% | Proportion of parasites in different phases of the cell cycle (% ± SD): Sub G0 [4]: 7.1 ± 0.6 % | T1/2 [5]: approximately 126 h

Triton X-100 [reference compound]
plasma membrane permeability [6]: significative permeabilization

OO [H2O2, reference compound]
integrity of the genetic content (DNA) [7]: DNA fragmentation
